Tests used:
Trypanosoma brucei [1] = test: Trypanocidal activity against blood stream form Trypanosoma brucei 427 expressing red-shifted luciferase gene measured after 24 hrs by microplate luminometer analysis; format: functional, organism-based; conditions: Trypanosoma brucei, 427, 24 h
[2] = Cytotoxicity against mouse J774 cells after 24 hrs by WST-1 assay; format: toxicity, cell-based
[3] = Selectivity index, ratio of CC50 for cytotoxicity against mouse J774 cells to EC50 for trypanocidal activity against blood stream form Trypanosoma brucei 427; format: toxicity, cell-based; conditions: read-out: Ratio CC50/EC50
J774 [4] = test: Cytotoxicity against mouse J774 cells at 50 uM after 24 hrs by WST-1 assay relative to control; format: toxicity, cell-based; conditions: j774, 24 h
Trypanosoma brucei [5] = test: (§1) Redox activity against blood stream form Trypanosoma brucei 427 expressing redox-sensitive green fluorescent protein fused human glutaredoxin assessed as biosensor oxidation by measuring fluorescence at 2 times EC50 incubated for 1 hr by propidium iodide staining based flow cytometric analysis relative to control; format: functional
Leishmania infantum [6] = test: Antileishmanial activity against Leishmania infantum MHOM/MA/67/ITMAP263 promastigotes expressing red-shifted luciferase gene infected in mouse J774 cells incubated for 24 hrs by microplate luminometer analysis; format: functional, organism-based; conditions: MHOM/MA/67/ITMAP263, J774, 24 h
[7] = Selectivity index, ratio of CC50 for cytotoxicity against mouse J774 cells to EC50 for trypanocidal activity against Leishmania infantum MHOM/MA/67/ITMAP263 promastigotes; format: toxicity, cell-based; conditions: read-out: Ratio CC50/EC50
Trypanosoma cruzi [8] = test: Trypanocidal activity against Trypanosoma cruzi DM28c amastigotes expressing red-shifted luciferase gene infected in african green monkey Vero cells incubated for 72 hrs by microplate luminometer analysis; format: functional, organism-based
[9] = Selectivity index, ratio of CC50 for cytotoxicity against mouse J774 cells to EC50 for trypanocidal activity against Trypanosoma cruzi DM28c amastigotes; format: toxicity, cell-based; conditions: read-out: Ratio CC50/EC50
Leishmania infantum [10] = test: Antileishmanial activity against Leishmania infantum MHOM/MA/67/ITMAP263 promastigotes expressing red-shifted luciferase gene infected in mouse J774 cells incubated at 20 uM for 24 hrs by microplate luminometer analysis relative to control; format: functional
J774 [11] = test: Cytotoxicity against mouse J774 cells at 10 uM after 24 hrs by WST-1 assay relative to control; format: toxicity, cell-based; conditions: j774, 24 h
Trypanosoma brucei [12] = test: as §1, with “at 1” for “at 2”; format: functional
Trypanosoma cruzi [13] = test: Trypanocidal activity against Trypanosoma cruzi DM28c amastigotes expressing red-shifted luciferase gene infected in african green monkey Vero cells incubated at 10 uM for 72 hrs by microplate luminometer analysis relative to control; format: functional
Leishmania infantum [14] = test: Antileishmanial activity against Leishmania infantum MHOM/MA/67/ITMAP263 promastigotes expressing red-shifted luciferase gene infected in mouse J774 cells incubated at 10 uM for 24 hrs by microplate luminometer analysis relative to control; format: functional

Row | Structure (SMILES) | EC50 (Trypanosoma brucei [1]) [µM] | CC50 at 24 h [2] [µM] | selectivity ratio [3] | Activity (J774 [4]) [%] | Activity (Trypanosoma brucei [5]) [%] | EC50 (Leishmania infantum [6]) [µM] | selectivity ratio [7] | EC50 (Trypanosoma cruzi [8]) [µM] | selectivity ratio [9] | Activity (Leishmania infantum [10]) [%] | Activity (J774 [11]) [%] | Activity (Trypanosoma brucei [12]) [%] | Activity (Trypanosoma cruzi [13]) [%] | Activity (Leishmania infantum [14]) [%]
1 | O=C1C=C(Oc2ccc3cccnc3c2)C(=O)c2ccccc21 | 3.8 | < 50 | < 13 | 37 | 7.92 | – | – | – | – | – | – | – | – | –
2 | CCCCCCCCCCCCCCCCOP(=O)([O-])OCC[N+](C)(C)C [MILTEFOSINE] | – | 50 | – | – | – | 38.2 | ~1 | – | – | – | – | – | – | –
3 | COc1ccc(OC2=CC(=O)c3nc(-c4ccccc4)sc3C2=O)cc1 | 1.8 | 78 | 43 | – | 89.22 | – | – | 1.1 | 71 | 90 | – | – | – | –
4 | O=C1C=CC(=O)c2sc(-c3ccccc3)nc21 | 1.3 | < 10 | < 8 | – | 99.42 | – | – | – | – | – | 0 | – | – | –
5 | O=C1C(Nc2ccccc2)=C(Br)C(=O)c2oc(-c3ccccc3)nc21 | 1.9 | < 10 | < 5 | – | 95.87 | – | – | – | – | – | 0.5 | – | – | –
6 | O=C1C=C(Br)C(=O)c2oc(-c3ccccc3)nc21 | 1.6 | < 10 | < 6 | – | 20.95 | – | – | – | – | – | 10 | – | – | –
7 | O=C1C=C(Oc2ccc3cc(O)ccc3c2)C(=O)c2ccccc21 | 4.3 | ~50 | ~14 | 63 | 40.54 | – | – | – | – | – | – | – | – | –
8 | O=C1C(Nc2ccccc2)=C(Br)C(=O)c2sc(-c3ccccc3)nc21 | 0.5 | < 10 | < 22 | – | 85.67 | – | – | – | – | – | 117 | – | – | –
9 | C[C@@H]1[C@H](O)[C@@H](C)/C=C/C=C/C=C/C=C/C=C/C=C/C=C/[C@H](O[C@@H]2O[C@H](C)[C@@H](O)[C@H](N)[C@@H]2O)C[C@@H]2O[C@](O)(C[C@@H](O)C[C@@H](O)[C@H](O)CC[C@@H](O)C[C@@H](O)CC(=O)O[C@H]1C)C[C@H](O)[C@H]2C(=O)O [AMPHOTERICIN B] | – | 9 | – | – | – | 0.035 | 257 | – | – | – | – | – | – | –
10 | O=C1C=C(Oc2ccccc2)C(=O)c2oc(-c3ccccc3)cc21 | 2.9 | 37 | 13 | – | – | – | – | – | – | – | – | 85.4 | – | –
11 | O=C1C=C(Br)C(=O)c2sc(-c3ccccc3)nc21 | 1.5 | 61 | 40 | – | 96.99 | – | – | – | – | 91 | – | – | 78 | –
12 | O=C1C=CC(=O)c2oc(-c3ccccc3)cc21 | 2.7 | 118 | 44 | – | 95.33 | – | – | – | – | – | – | – | 88 | 129
13 | O=C1C=CC(=O)c2oc(-c3ccccc3)nc21 | 2.3 | < 10 | < 4 | – | 100 | – | – | – | – | – | 21 | – | – | –
14 | O=C1C=C(Oc2ccc(F)cc2)C(=O)c2sc(-c3ccccc3)nc21 | 5 | < 10 | < 2 | – | 92.06 | – | – | – | – | – | 5 | – | – | –
15 | O=C1C=C(Oc2ccccc2)C(=O)c2sc(-c3ccccc3)nc21 | 1.8 | < 10 | < 6 | – | – | – | – | – | – | – | 40 | 95.51 | – | –
16 | O=C1C=C(Oc2ccc(CO)cc2)C(=O)c2ccccc21 | 4.6 | ~50 | ~11 | 49 | 87.33 | – | – | – | – | – | – | – | – | –
17 | CC(C)(C)c1ccc(OC2=CC(=O)c3ccccc3C2=O)cc1 | 5.5 | < 50 | < 9 | 24 | – | – | – | – | – | – | – | 81.7 | – | –
18 | CC1CS(=O)(=O)CCN1/N=C/c1ccc([N+](=O)[O-])o1 (stereo not given) [NIFURTIMOX] | 5.3 | 100 | 19 | – | – | – | – | 0.7 | 142 | 137 | – | – | – | –
19 | O=C1C=C(Oc2ccccc2)C(=O)c2oc(-c3ccccc3)nc21 | 3.3 | 46 | 14 | – | 94.92 | – | – | – | – | – | – | – | – | –
20 | COc1ccc2cc(OC3=CC(=O)c4ccccc4C3=O)ccc2c1 | 5.2 | ~50 | ~10 | 57 | 59.07 | – | – | – | – | – | – | – | – | –
21 | O=C1C=C(Br)C(=O)c2oc(-c3ccccc3)cc21 | 38 | 59 | 2 | – | – | – | – | – | – | – | – | 99.25 | – | –
22 | O=C1C(Nc2ccccc2)=C(Br)C(=O)c2oc(-c3ccccc3)cc21 | 0.9 | 57 | 63 | – | – | – | – | 0.8 | 71 | – | – | 71.31 | – | 102

Source: ChEMBL document CHEMBL5352472, “Mode of action of p-quinone derivatives with trypanocidal activity studied by experimental and in silico models” (Eur J Med Chem, 2023)
